Assay results reported in patent US10000473B2, “Indazole derivatives useful as glucagon receptor antagonists” (Janssen Pharmaceutica NV, priority 2016, dated 2018).

molecular target: T1, human GCGR (Homo sapiens, UniProt P47871); assay: Cellular functional assay, cAMP readout (glucagon-stimulated cAMP, LANCE TR-FRET); format: cell-based; conditions: HEK293 cells stably expressing full-length human GCGR; glucagon 100 pM; IC50 converted to Ki; read-out: Inhibition of cAMP Ki
T1 construct: expressed in transfected cells; host or cells: HEK293 (hGluc-1HEK), pcDNA3.1, G418 selection
T1 sequence (P47871 26-477): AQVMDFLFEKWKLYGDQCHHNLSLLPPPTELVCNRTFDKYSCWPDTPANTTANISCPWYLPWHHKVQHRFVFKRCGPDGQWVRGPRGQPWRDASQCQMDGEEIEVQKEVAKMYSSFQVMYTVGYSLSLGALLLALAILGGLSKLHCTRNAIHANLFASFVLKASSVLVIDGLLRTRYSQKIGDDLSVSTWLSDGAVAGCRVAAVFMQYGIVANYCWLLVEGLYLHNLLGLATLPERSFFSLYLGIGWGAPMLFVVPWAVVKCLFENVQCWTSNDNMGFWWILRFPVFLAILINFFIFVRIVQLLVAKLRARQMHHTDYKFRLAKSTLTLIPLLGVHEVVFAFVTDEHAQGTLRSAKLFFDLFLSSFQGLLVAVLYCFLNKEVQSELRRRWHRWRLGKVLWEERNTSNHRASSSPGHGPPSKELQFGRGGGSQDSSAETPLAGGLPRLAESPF
Description: IC50 Values in Cellular Functional Assays: cAMP Readout
Full-length human GCGR (Accession Number: NM000160) subcloned into pcDNA3.1 was stably transfected into HEK293 cells (hGluc-1HEK) and maintained under G418 selection (500 μg/mL). Cell cultures were maintained in DMEM/F12 media supplemented with 10% FBS and 1% GlutaMax™ Supplement (Available from ThermoFisher Scientific, catalog #35050061). Glucagon stimulated cAMP was quantified using LANCE technology as per manufacturer instructions. On the day of the experiment, spent media was removed and cells were washed with Hank's Buffered Saline solution (HBSS), and cells harvested with non-enzymatic cell dissociation solution, then washed once with HBSS. Cells were re-suspended in stimulation buffer at a concentration of 0.83×10^6 cells/ml and cAMP detection antibody was added. 6 μl/well of this solution was then dispensed in a 384 well plate (cell density 5000 cells/well). Test compound was serially diluted in DMSO and 50 nl were dispensed on top of the cell solution and allowed to incubate for 30 minutes. 6 μl of a 2× glucagon solution (final concentration in assay 100 pM) was then added and the reaction was terminated after 5 minutes with the addition of detection mix. The resulting mixture was incubated, protected from light for 1.5 h. cAMP levels were quantified by TR-FRET in an EnVision instrument against a known standard. IC50's were generated by using a non-linear regression macro driven in Excel and converted to Ki values.

SMILES	Ki [nM]
Cc1c(-c2ccc(C(C)(C)C)cc2)ccc2c1cnn2C(CC(C)C)c1ccc(C(=O)NCCC(=O)O)cc1 (centres unmarked) [Compound #47, 3-(4-(1-(5-(4-(tert-Butyl)phenyl)-4-methyl-1H-indazol-1-yl)-3-methylbutyl)benzamido)propanoic acid]	92
Cc1cc(C(F)(F)F)ccc1-c1ccc2nn(C(CCC(F)(F)F)c3ccc(C(=O)NCCC(=O)O)cc3)cc2c1 (centres unmarked) [Compound #50, 3-[[4-[4,4,4-Trifluoro-1-[5-[2-methyl-4-(trifluoromethyl)phenyl]indazol-2-yl]butyl]benzoyl]amino]propanoic acid]	47
CCCC(c1ccc(C(=O)NCCC(=O)O)cc1)n1ncc2cc(-c3ccc(C(C)(C)C)cc3)ccc21 (centres unmarked) [Compound #56, 3-(4-(1-(5-(4-(tert-Butyl)phenyl)-1H-indazol-1-yl)butyl)benzamido)propanoic acid]	650
CC(C)CC(c1ccc(C(=O)NCCC(=O)O)cc1)n1ncc2c(Cl)c(-c3ccc(C(F)(F)F)cc3)ccc21 (centres unmarked) [Compound #67, 3-(4-(1-(4-Chloro-5-(4-(trifluoromethyl)phenyl)-1H-indazol-1-yl)-3-methylbutyl)benzamido)propanoic acid]	245
CC(c1ccc(C(=O)NCCC(=O)O)cc1)n1ncc2cc(-c3ccc(C(C)(C)C)cc3)ccc21 (centres unmarked) [Compound #68, 3-(4-(1-(5-(4-(tert-Butyl)phenyl)-1H-indazol-1-yl)ethyl)benzamido) propanoic acid]	2800
O=C(O)CCNC(=O)c1ccc(C(CCC(F)(F)F)n2ncc3cc(-c4ccc(OC(F)(F)F)cc4)ccc32)cc1 (centres unmarked) [Compound #76, 3-[[4-[4,4,4-Trifluoro-1-[5-[4-(trifluoromethoxy)phenyl]indazol-1-yl]butyl]benzoyl]amino]propanoic acid]	700
Cc1c(-c2ccc(C(C)(C)C)cc2)ccc2nn(C(CC(C)C)c3ccc(C(=O)NCCC(=O)O)cc3)cc12 (centres unmarked) [Compound #78, 3-(4-(1-(5-(4-(tert-Butyl)phenyl)-4-methyl-2H-indazol-2-yl)-3-methylbutyl)benzamido)propanoic acid]	35
CC(C)C[C@H](c1ccc(C(=O)NCCC(=O)O)cc1)n1ncc2cc(-c3ccc(C(F)(F)F)cc3Cl)ccc21 [Compound #85, 3-[[4-[(1R)-1-[5-[2-Chloro-4-(trifluoromethyl)phenyl]indazol-1-yl]-3-methyl-butyl]benzoyl]amino]propanoic acid]	1270
CC(C)C[C@@H](c1ccc(C(=O)NCCC(=O)O)cc1)n1ncc2cc(-c3ccc(C(F)(F)F)cc3Cl)ccc21 [Compound #90, 3-[[4-[(1S)-1-[5-[2-Chloro-4-(trifluoromethyl)phenyl]indazol-1-yl]-3-methyl-butyl]benzoyl]amino]propanoic acid]	85
Cc1cc(C(F)(F)F)ccc1-c1cc2cnn(C(CC(C)C)c3ccc(C(=O)NCCC(=O)O)cc3)c2cc1C (centres unmarked) [Compound #93, 3-[[4-[3-Methyl-1-[6-methyl-5-[2-methyl-4-(trifluoromethyl)phenyl]indazol-1-yl]butyl]benzoyl]amino]propanoic acid]	36
COc1c(-c2ccc(Cl)cc2C)ccc2c1cnn2C(CC(C)C)c1ccc(C(=O)NCCC(=O)O)cc1 (centres unmarked) [Compound #99, 3-(4-(1-(5-(4-Chloro-2-methylphenyl)-4-methoxy-1H-indazol-1-yl)-3-methylbutyl)benzamido)propanoic acid]	145
O=C(O)CCNC(=O)c1ccc(C(c2ccc(C(F)(F)F)cc2)n2ncc3cc(-c4ccc(C(F)(F)F)cc4)ccc32)cc1 (centres unmarked) [Compound #101, 3-(4-((4-(Trifluoromethyl)phenyl)(5-(4-(trifluoromethyl)phenyl)-1H-indazol-1-yl)methyl)benzamido)propanoic acid]	800
COc1c(-c2ccc(C(F)(F)F)cc2Cl)ccc2c1cnn2C(CC(C)C)c1ccc(C(=O)NCCC(=O)O)cc1 (centres unmarked) [Compound #103, 3-(4-(1-(5-(2-Chloro-4-(trifluoromethyl)phenyl)-4-methoxy-1H-indazol-1-yl)-3-methylbutyl)benzamido)propanoic acid]	100
Cc1ccc(-c2ccc3c(cnn3C(CC(C)C)c3ccc(C(=O)NCCC(=O)O)cc3)c2C)c(Cl)c1 (centres unmarked) [Compound #105, 3-(4-(1-(5-(2-Chloro-4-methylphenyl)-4-methyl-1H-indazol-1-yl)-3-methylbutyl)benzamido)propanoic acid]	800
O=C(O)CCNC(=O)c1ccc(C(CCC(F)(F)F)n2ncc3cc(-c4ccc(C(F)(F)F)c(Cl)c4)ccc32)cc1 (centres unmarked) [Compound #111, 3-[[4-[1-[5-[3-Chloro-4-(trifluoromethyl)phenyl]indazol-1-yl]-4,4,4-trifluorobutyl]benzoyl]amino]propanoic acid]	> 1300
CC(C)CC(c1ccc(C(=O)NCCC(=O)O)nc1)n1ncc2cc(-c3ccc(Cl)cc3Cl)ccc21 (centres unmarked) [Compound #113, 3-(5-(1-(5-(2,4-Dichlorophenyl)-1H-indazol-1-yl)-3-methylbutyl)picolinamido)propanoic acid]	420

Further compounds by falling Ki, results first:

Ki [nM]	SMILES
600	O=C(O)CCNC(=O)c1ccc(C(c2ccc(C(F)(F)F)cc2)n2cc3cc(-c4ccc(C(F)(F)F)cc4)ccc3n2)cc1 (centres unmarked) [Compound #66, 3-(4-((4-(Trifluoromethyl)phenyl)(5-(4-(trifluoromethyl)phenyl)-2H-indazol-2-yl)methyl)benzamido)propanoic acid]
550	Cc1cc(Cl)ccc1-c1cc2cnn(C(CC(C)C)c3ccc(C(=O)NCCC(=O)O)nc3)c2cc1Cl (centres unmarked) [Compound #102, 3-[[5-[1-[6-Chloro-5-(4-chloro-2-methyl-phenyl)indazol-1-yl]-3-methyl-butyl]pyridine-2-carbonyl]amino]propanoic acid]
500	CC(C)CC(c1ccc(C(=O)NCCC(=O)O)nc1)n1ncc2cc(-c3cc4ccccc4o3)ccc21 (centres unmarked) [Compound #79, 3-(5-(1-(5-(Benzofuran-2-yl)-1H-indazol-1-yl)-3-methylbutyl)picolinamido)propanoic acid]
410	O=C(O)CCNC(=O)c1ccc(C(CCC(F)(F)F)n2ncc3cc(-c4ccc(Cl)cc4Cl)ccc32)cc1 (centres unmarked) [Compound #112, 3-[[4-[1-[5-(2,4-Dichlorophenyl)indazol-1-yl]-4,4,4-trifluorobutyl]benzoyl]amino]propanoic acid]
336	CC(C)CC(c1ccc(C(=O)NCCC(=O)O)nc1)n1cc2cc(-c3ccc(Cl)cc3Cl)ccc2n1 (centres unmarked) [Compound #83, 3-(5-(1-(5-(2,4-Dichlorophenyl)-2H-indazol-2-yl)-3-methylbutyl)picolinamido)propanoic acid]
235	O=C(O)CCNC(=O)c1ccc(C(CCC(F)(F)F)n2ncc3cc(-c4ccc(C(F)(F)F)cc4)ccc32)cc1 (centres unmarked) [Compound #75, 3-[[4-[4,4,4-Trifluoro-1-[5-[4-(trifluoromethyl)phenyl]indazol-1-yl]butyl]benzoyl]amino]propanoic acid]
115	Cc1c(-c2ccc(C(F)(F)F)cc2Cl)ccc2c1cnn2C(CC(C)C)c1ccc(C(=O)NCCC(=O)O)cc1 (centres unmarked) [Compound #55, 3-(4-(1-(5-(2-Chloro-4-(trifluoromethyl)phenyl)-4-methyl-1H-indazol-1-yl)-3-methylbutyl)benzamido)propanoic acid]
105	CC(C)CC(c1ccc(C(=O)NCCC(=O)O)nc1)n1cc2cc(-c3ccc(C(F)(F)F)cc3Cl)ccc2n1 (centres unmarked) [Compound #53, 3-(5-(1-(5-(2-Chloro-4-(trifluoromethyl)phenyl)-2H-indazol-2-yl)-3-methylbutyl)picolinamido)pr-opanoic acid]
52	Cc1cc2nn(C(CC(C)C)c3ccc(C(=O)NCCC(=O)O)cc3)cc2cc1-c1ccc(C(F)(F)F)cc1Cl (centres unmarked) [Compound #95, 3-[[4-[1-[5-[2-Chloro-4-(trifluoromethyl)phenyl]-6-methyl-indazol-2-yl]-3-methyl-butyl]benzoyl]amino]propanoic acid]
37	COc1c(-c2ccc(Cl)cc2C)ccc2nn(C(CC(C)C)c3ccc(C(=O)NCCC(=O)O)cc3)cc12 (centres unmarked) [Compound #64, 3-(4-(1-(5-(4-Chloro-2-methylphenyl)-4-methoxy-2H-indazol-2-yl)-3-methylbutyl)benzamido)propanoic acid]
28	Cc1cc(C(F)(F)F)ccc1-c1ccc2nn(C(CC(C)C)c3ccc(C(=O)NCCC(=O)O)cc3)cc2c1C (centres unmarked) [Compound #63, 3-(4-(3-Methyl-1-(4-methyl-5-(2-methyl-4-(trifluoromethyl)phenyl)-2H-indazol-2-yl)butyl)benzamido)propanoic acid]
26	Cc1cc2c(cnn2C(CC(C)C)c2ccc(C(=O)NCCC(=O)O)cc2)cc1-c1ccc(C(F)(F)F)cc1Cl (centres unmarked) [Compound #94, 3-[[4-[1-[5-[2-Chloro-4-(trifluoromethyl)phenyl]-6-methyl-indazol-1-yl]-3-methyl-butyl]benzoyl]amino]propanoic acid]
19	Cc1cc(C(F)(F)F)ccc1-c1cc2cn(C(CC(C)C)c3ccc(C(=O)NCCC(=O)O)cc3)nc2cc1C (centres unmarked) [Compound #54, 3-[[4-[3-Methyl-1-[6-methyl-5-[2-methyl-4-(trifluoromethyl)phenyl]indazol-2-yl]butyl]benzoyl]amino]propanoic acid]
